From ChEMBL document CHEMBL4390652, “Design, biological evaluation and X-ray crystallography of nanomolar multifunctional ligands targeting simultaneously acetylcholinesterase and glycogen synthase kinase-3” (Eur J Med Chem, 2019)
pIC50: −log10 of the molar value.

Columns and labels:
HaCaT = experiment: Cytotoxicity against human HaCaT cells assessed as growth inhibition incubated for 48 hrs by Hoechst 33342 staining based assay; format: cell-based
[1] = test system: Leucine-rich repeat serine/threonine-protein kinase 2 (Homo sapiens), Q5S007 [G2019S]; experiment: Binding affinity to human partial length LRRK2 G2019S mutant (H970 to E2527 residues) expressed in mammalian expression system assessed as residual binding level at 10 uM by Kinomescan method relative to control
[2] = target: Serine/threonine-protein kinase VRK2 (Homo sapiens) (UniProt Q86Y07); experiment: Binding affinity to wild-type human partial length VRK2 (M1 to T336 residues) expressed in mammalian expression system assessed as residual binding level at 10 uM by Kinomescan method relative to control
Acetylcholinesterase = Acetylcholinesterase (Homo sapiens, UniProt P22303); experiment: Inhibition of human recombinant AChE using ATCh as substrate preincubated for 20 mins followed by substrate addition and measured for 3 mins by Ellman method
[3] = target: Tyrosine-protein kinase Fer (Homo sapiens) (UniProt P16591); experiment: Binding affinity to wild-type human partial length FER (S542 to T822 residues) expressed in bacterial expression system assessed as residual binding level at 10 uM by Kinomescan method relative to control
[4] = target: Serine/threonine-protein kinase haspin (Homo sapiens) (UniProt Q8TF76); experiment: Binding affinity to wild-type human partial length HASPIN (I452 to K798 residues) expressed in mammalian expression system assessed as residual binding level at 10 uM by Kinomescan method relative to control
[5] = test system: Epidermal growth factor receptor (Homo sapiens), P00533 [UNDEFINED MUTATION]; experiment: Binding affinity to human partial length EGFR S752-I759del mutant expressed in bacterial expression system assessed as residual binding level at 10 uM by Kinomescan method relative to control
[6] = target: Ephrin type-A receptor 7 (Homo sapiens) (UniProt Q15375); experiment: Binding affinity to wild-type human partial length EPHA7 (Y608 to S912 residues) expressed in bacterial expression system assessed as residual binding level at 10 uM by Kinomescan method relative to control
[7] = target: Serine/threonine-protein kinase MRCK beta (Homo sapiens) (UniProt Q9Y5S2); experiment: Binding affinity to wild-type human partial length MRCKB (L56 to S417 residues) expressed in bacterial expression system assessed as residual binding level at 10 uM by Kinomescan method relative to control
[8] = target: Serine/threonine-protein kinase NIM1 (Homo sapiens) (UniProt Q8IY84); experiment: Binding affinity to wild-type human partial length NIM1 (Q44 to N355 residues) expressed in mammalian expression system assessed as residual binding level at 10 uM by Kinomescan method relative to control
[9] = target: Tyrosine-protein kinase FRK (Homo sapiens) (UniProt P42685); experiment: Binding affinity to wild-type human partial length FRK (A215 to F503 residues) expressed in bacterial expression system assessed as residual binding level at 10 uM by Kinomescan method relative to control
[10] = target: Fibroblast growth factor receptor 1 (Homo sapiens) (UniProt P11362); experiment: Binding affinity to wild-type human partial length FGFR1 (P357 to V669 residues) expressed in bacterial expression system assessed as residual binding level at 10 uM by Kinomescan method relative to control
[11] = target: Serine/threonine-protein kinase STK11 (Homo sapiens) (UniProt Q15831); experiment: Binding affinity to wild-type human full length LKB1 (M1 to Q433 residues) expressed in bacterial expression system assessed as residual binding level at 10 uM by Kinomescan method relative to control
[12] = target: Receptor tyrosine-protein kinase erbB-2 (Homo sapiens) (UniProt P04626); experiment: Binding affinity to wild-type human partial length ERBB2 (K646 to V1225 residues) expressed in mammalian expression system assessed as residual binding level at 10 uM by Kinomescan method relative to control
[13] = target: Proto-oncogene tyrosine-protein kinase Src (Homo sapiens) (UniProt P12931); experiment: Binding affinity to wild-type human partial length SRC (L240 to L536 residues) expressed in bacterial expression system assessed as residual binding level at 10 uM by Kinomescan method relative to control
HCT-116 = experiment: Cytotoxicity against human HCT116 cells assessed as growth inhibition incubated for 48 hrs by Hoechst 33342 staining based assay; format: cell-based; details: HCT-116, 48 h
[14] = target: Ephrin type-B receptor 6 (Homo sapiens) (UniProt O15197); experiment: Binding affinity to wild-type human partial length EPHB6 (Q634 to P948 residues) expressed in mammalian expression system assessed as residual binding level at 10 uM by Kinomescan method relative to control
[15] = test system: Proto-oncogene tyrosine-protein kinase receptor Ret (Homo sapiens), P07949 [M918T]; experiment: Binding affinity to human partial length RET M918T mutant (E713 to D1014 residues) expressed in bacterial expression system assessed as residual binding level at 10 uM by Kinomescan method relative to control
[16] = target: Serine/threonine-protein kinase RIO1 (Homo sapiens) (UniProt Q9BRS2); experiment: Binding affinity to wild-type human full length RIOK1 (M1 to K568 residues) expressed in bacterial expression system assessed as residual binding level at 10 uM by Kinomescan method relative to control
[17] = target: ALK tyrosine kinase receptor (Homo sapiens) (UniProt Q9UM73); experiment: Binding affinity to wild-type human partial length ALK (I1088 to E1409 residues) expressed in mammalian expression system assessed as residual binding level at 10 uM by Kinomescan method relative to control
[18] = target: Casein kinase II subunit alpha (Homo sapiens) (UniProt P68400); experiment: Binding affinity to wild-type human full length CSNK2A1 (M1 to Q391 residues) expressed in mammalian expression system assessed as residual binding level at 10 uM by Kinomescan method relative to control
Caco-2 = experiment: Cytotoxicity against human Caco2 cells assessed as growth inhibition incubated for 48 hrs by Hoechst 33342 staining based assay; format: cell-based; details: Caco-2, 48 h
[19] = target: Serine/threonine-protein kinase PAK 1 (Homo sapiens) (UniProt Q13153); experiment: Binding affinity to wild-type human partial length PAK1 (S149 to H545 residues) expressed in bacterial expression system assessed as residual binding level at 10 uM by Kinomescan method relative to control
[20] = target: cGMP-dependent protein kinase 2 (Homo sapiens) (UniProt Q13237); experiment: Binding affinity to wild-type human partial length PRKG2 (S422 to F762 residues) expressed in mammalian expression system assessed as residual binding level at 10 uM by Kinomescan method relative to control
[21] = target: Serine/threonine-protein kinase ULK1 (Homo sapiens) (UniProt O75385); experiment: Binding affinity to wild-type human partial length ULK1 (M1 to T309 residues) expressed in mammalian expression system assessed as residual binding level at 10 uM by Kinomescan method relative to control
[22] = target: Ribosomal protein S6 kinase alpha-1 (Homo sapiens) (UniProt Q15418); experiment: Binding affinity to wild-type human partial length C-terminal RSK1 kinase domain 2 (P360 to L681 residues) expressed in bacterial expression system assessed as residual binding level at 10 uM by Kinomescan method relative to control

Sequence of Leucine-rich repeat serine/threonine-protein kinase 2 (Homo sapiens), Q5S007 [G2019S] (Q5S007 whole entry G2019S, the tested form may be a part): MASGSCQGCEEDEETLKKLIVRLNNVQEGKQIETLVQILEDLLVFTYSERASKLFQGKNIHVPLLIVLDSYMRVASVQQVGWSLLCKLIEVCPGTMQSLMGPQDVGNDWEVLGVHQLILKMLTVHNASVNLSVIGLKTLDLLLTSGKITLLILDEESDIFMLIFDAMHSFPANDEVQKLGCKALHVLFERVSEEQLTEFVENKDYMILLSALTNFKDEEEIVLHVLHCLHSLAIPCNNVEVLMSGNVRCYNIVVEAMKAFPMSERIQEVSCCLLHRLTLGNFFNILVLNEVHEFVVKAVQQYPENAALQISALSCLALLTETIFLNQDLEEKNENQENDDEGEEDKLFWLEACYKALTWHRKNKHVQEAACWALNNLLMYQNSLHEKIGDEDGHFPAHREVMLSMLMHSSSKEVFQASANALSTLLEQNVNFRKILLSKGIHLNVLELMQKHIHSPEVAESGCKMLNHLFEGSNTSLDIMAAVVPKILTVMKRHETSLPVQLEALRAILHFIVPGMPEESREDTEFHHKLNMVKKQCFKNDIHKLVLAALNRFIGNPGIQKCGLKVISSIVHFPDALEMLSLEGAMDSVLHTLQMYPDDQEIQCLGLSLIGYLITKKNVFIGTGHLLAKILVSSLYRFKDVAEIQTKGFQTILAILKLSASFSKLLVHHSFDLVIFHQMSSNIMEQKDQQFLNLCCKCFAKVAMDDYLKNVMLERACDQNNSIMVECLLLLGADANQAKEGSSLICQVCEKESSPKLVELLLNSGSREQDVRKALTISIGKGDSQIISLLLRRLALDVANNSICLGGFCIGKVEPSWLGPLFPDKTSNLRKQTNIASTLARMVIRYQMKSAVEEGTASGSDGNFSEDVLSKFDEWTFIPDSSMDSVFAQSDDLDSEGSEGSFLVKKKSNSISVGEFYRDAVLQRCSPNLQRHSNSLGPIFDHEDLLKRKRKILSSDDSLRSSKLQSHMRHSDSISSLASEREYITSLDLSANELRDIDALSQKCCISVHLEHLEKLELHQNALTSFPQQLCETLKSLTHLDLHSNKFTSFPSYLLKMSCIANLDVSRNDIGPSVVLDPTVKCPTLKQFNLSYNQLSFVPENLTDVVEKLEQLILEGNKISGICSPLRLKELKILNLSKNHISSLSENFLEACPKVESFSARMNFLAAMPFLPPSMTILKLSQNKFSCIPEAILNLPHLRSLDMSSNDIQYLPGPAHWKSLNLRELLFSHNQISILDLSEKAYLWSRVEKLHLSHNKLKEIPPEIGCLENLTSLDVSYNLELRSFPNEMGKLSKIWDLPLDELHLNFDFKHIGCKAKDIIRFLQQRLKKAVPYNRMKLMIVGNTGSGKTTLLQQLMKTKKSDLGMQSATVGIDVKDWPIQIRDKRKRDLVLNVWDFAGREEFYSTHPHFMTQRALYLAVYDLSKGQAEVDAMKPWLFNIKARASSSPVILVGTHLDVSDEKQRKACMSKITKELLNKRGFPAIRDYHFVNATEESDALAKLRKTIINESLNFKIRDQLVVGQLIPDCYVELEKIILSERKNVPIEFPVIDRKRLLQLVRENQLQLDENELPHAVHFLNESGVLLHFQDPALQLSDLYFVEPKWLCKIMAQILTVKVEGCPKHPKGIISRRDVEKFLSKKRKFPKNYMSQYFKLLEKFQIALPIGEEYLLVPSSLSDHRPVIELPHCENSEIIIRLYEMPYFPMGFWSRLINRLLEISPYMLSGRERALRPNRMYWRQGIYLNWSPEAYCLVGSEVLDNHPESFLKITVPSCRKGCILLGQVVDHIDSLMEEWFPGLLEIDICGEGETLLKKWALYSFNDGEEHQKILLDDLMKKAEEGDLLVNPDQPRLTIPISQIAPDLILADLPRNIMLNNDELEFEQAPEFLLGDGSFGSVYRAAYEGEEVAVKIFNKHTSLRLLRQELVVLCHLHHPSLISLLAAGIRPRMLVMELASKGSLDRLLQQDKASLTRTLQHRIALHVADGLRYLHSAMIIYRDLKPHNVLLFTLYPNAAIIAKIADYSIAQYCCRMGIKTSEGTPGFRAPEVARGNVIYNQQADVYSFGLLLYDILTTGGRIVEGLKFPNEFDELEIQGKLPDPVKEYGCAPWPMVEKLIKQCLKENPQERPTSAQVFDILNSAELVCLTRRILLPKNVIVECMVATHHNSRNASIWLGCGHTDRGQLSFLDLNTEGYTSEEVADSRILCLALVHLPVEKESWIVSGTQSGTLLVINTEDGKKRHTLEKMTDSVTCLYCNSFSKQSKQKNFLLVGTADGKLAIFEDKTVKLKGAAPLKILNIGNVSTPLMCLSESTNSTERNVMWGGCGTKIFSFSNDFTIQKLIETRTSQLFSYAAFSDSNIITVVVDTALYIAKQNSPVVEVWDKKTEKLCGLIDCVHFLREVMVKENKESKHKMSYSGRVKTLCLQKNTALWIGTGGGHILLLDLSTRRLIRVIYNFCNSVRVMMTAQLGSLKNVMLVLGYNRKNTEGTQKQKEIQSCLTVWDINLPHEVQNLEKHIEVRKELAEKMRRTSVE
Sequence of Serine/threonine-protein kinase RIO1 (Homo sapiens) (Q9BRS2 whole entry, the tested form may be a part): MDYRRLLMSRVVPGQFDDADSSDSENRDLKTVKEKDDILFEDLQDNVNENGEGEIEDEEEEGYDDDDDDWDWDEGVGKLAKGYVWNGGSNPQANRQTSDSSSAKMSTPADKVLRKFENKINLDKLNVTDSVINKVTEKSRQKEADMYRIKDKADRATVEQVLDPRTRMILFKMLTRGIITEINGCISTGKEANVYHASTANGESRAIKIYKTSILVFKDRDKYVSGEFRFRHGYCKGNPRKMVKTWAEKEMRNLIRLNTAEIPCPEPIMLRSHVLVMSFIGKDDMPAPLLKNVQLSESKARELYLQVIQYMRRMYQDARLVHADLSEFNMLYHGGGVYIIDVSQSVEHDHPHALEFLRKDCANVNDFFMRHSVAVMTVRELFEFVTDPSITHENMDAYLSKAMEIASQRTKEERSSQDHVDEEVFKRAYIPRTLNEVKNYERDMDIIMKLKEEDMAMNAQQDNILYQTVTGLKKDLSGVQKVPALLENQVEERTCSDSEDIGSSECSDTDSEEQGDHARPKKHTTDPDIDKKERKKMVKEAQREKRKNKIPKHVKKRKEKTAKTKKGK
Sequence of Serine/threonine-protein kinase ULK1 (Homo sapiens) (O75385 whole entry, the tested form may be a part): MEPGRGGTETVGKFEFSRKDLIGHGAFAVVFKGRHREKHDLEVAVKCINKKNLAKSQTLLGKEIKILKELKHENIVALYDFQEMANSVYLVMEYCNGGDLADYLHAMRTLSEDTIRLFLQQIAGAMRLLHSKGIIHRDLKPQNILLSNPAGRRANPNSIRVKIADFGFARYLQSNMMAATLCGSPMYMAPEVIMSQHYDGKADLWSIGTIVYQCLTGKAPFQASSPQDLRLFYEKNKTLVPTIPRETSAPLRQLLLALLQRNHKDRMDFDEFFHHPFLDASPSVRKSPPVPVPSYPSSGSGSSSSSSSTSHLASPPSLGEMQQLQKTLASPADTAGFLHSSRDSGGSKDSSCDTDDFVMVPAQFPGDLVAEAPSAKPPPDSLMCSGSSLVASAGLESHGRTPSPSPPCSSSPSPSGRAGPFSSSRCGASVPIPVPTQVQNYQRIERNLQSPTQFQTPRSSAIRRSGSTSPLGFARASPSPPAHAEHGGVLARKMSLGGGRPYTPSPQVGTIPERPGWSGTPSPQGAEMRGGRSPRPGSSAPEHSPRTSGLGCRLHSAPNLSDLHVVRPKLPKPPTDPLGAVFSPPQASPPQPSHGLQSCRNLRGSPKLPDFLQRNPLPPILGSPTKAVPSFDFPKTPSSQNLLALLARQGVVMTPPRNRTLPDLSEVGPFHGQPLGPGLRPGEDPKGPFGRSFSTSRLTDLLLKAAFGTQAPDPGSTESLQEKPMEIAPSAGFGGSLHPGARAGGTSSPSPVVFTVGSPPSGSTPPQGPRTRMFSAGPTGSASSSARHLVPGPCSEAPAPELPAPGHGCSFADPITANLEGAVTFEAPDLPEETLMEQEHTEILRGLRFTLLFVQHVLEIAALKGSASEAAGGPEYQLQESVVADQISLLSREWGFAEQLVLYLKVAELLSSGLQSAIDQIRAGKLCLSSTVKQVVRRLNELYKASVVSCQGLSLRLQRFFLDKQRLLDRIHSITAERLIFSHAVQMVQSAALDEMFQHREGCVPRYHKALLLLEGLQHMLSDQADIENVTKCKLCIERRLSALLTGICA
Sequence of Serine/threonine-protein kinase PAK 1 (Homo sapiens) (Q13153 whole entry, the tested form may be a part): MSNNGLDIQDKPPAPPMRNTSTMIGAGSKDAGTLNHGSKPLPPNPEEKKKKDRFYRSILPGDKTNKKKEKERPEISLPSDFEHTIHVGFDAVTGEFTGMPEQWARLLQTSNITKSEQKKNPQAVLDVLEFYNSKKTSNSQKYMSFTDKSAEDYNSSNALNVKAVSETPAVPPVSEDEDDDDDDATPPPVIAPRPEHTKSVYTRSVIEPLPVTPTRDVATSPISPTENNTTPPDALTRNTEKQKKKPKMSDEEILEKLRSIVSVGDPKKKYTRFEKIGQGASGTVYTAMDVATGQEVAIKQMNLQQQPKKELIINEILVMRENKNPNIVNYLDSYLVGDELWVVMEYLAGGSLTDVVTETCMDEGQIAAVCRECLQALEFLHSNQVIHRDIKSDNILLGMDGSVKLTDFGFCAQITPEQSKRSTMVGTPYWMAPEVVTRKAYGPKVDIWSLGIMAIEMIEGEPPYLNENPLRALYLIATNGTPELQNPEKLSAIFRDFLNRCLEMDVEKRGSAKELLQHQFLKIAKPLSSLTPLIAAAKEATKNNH
Sequence of Serine/threonine-protein kinase NIM1 (Homo sapiens) (Q8IY84 whole entry, the tested form may be a part): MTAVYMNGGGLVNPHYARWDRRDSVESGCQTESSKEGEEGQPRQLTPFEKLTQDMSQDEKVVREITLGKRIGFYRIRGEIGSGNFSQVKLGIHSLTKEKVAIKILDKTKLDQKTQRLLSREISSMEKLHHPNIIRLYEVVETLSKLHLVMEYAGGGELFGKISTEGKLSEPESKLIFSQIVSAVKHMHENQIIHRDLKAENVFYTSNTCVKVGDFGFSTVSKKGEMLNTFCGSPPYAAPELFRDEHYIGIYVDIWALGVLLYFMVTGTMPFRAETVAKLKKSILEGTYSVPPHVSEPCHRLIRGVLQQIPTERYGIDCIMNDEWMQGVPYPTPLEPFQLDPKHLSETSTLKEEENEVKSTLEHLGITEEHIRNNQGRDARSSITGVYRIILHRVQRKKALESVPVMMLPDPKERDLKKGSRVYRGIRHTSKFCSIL

O=C(Nc1cc(-c2cn(CCNc3c4c(nc5ccccc35)CCCC4)nn2)ccn1)Nc1cccc2c1C1CCCCN1C2=O (racemic)
pIC50 (HaCaT): 5.30 | Activity [1]: 24% | Activity [2]: 15% | pIC50 (Acetylcholinesterase): 7.94 | Activity [3]: 100% | Activity [4]: 3.9% | Activity [5]: 80% | Activity [6]: 76% | Activity [7]: 99% | Activity [8]: 83% | Activity [9]: 99% | Activity [10]: 27% | Activity [11]: 36% | Activity [12]: 100% | Activity [13]: 24% | pIC50 (HCT-116): 5.52 | Activity [14]: 13% | Activity [15]: 42% | Activity [16]: 5.2% | Activity [17]: 100% | Activity [18]: 33% | pIC50 (Caco-2): 5.52 | Activity [19]: 88% | Activity [20]: 4.4% | Activity [21]: 38% | Activity [22]: 53%
